For the assay, the system named is chondrocytes in the cartilage chamber. The experiment in a line: RT-PCR marker expression in cartilage (top) chamber of bioreactor after hormone supply. The note with it: progesterone progressively added to estradiol, week 3 and 4 (10 nM, 50 nM), higher when hormones directly applied to cartilage. Type of assay: cell-based. The protocol:
FIGS. 17-20 are graphs that show differential expression of markers (as determined by RT-PCR) for a control medium that contained no estrogen or progesterone (first bar), and then different concentrations of hormones supplied to one or the other of the bioreactor chambers during week 1 (w1: 0.1 nM estradiol), week 2 (w2: 1 nM estradiol), week 3 (w3: 1 nM estradiol and 10 nM progesterone), and week 4 (w4: 0.1 nM estradiol and 50 nM progesterone). […] FIGS. 17-18 show differential expression of markers (as determined by RT-PCR) for a control medium that contained no estrogen or progesterone (first bar), and then different concentrations of hormones supplied to the chambers during week 1 (w1: 0.1 nM estradiol), week 2 (w2: 1 nM estradiol), week 3 (w3: 1 nM estradiol and 10 nM progesterone), and week 4 (w4: 0.1 nM estradiol and 50 nM progesterone).

Regarding `CC(=O)[C@H]1CC[C@H]2[C@@H]3CCC4=CC(=O)CC[C@]4(C)[C@H]3CC[C@]12C` [progesterone], the “cartilage anabolic markers (Sox9, Aggrecan)” value is given as “downregulation is still present”.

Values taken from US12234486B2, “Modular, microfluidic, mechanically active bioreactor for 3D, multi-tissue, tissue culture” (University of Pittsburgh—Of the Commonwealth System of …, priority 2013, dated 2025).
